Molecules are shown by their SMILES. Where a name gives a salt, the structure may show the parent alone.

In the assay the target is T1, 6his-tagged full length BACE 1 from SF9 cells (Homo sapiens, UniProt P56817).
T1 construct: 6his-tagged full length BACE 1 from SF9 cells; made in house; host or cells: Sf9 insect cells
T1 sequence (P56817 46-501): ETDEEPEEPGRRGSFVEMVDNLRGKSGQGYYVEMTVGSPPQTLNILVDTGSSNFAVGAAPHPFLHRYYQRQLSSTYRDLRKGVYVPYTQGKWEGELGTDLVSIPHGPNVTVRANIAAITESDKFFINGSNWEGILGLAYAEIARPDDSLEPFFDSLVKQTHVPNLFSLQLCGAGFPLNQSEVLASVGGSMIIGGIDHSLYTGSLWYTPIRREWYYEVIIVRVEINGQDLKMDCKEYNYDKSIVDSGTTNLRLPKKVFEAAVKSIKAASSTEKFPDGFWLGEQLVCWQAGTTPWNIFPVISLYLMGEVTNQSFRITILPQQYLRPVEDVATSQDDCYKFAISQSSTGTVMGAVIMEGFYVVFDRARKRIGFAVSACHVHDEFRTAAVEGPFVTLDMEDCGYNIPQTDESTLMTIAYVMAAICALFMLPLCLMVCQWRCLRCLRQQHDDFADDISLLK
Nature of the assay: BACE1 MR121 protease assay. The settings on record: 30 nM 6his-BACE-1, 300 nM substrate peptide WSEVNLDAEFRC-MR121, Na-acetate pH 4.0, fluorescence. The format is biochemical. The method, then:
Assay plate: 384 well microtiter plate, Corning clear, flat bottom, non binding surface
Assaybuffer: 100 mM Na-acetate pH 4.0, 20 mM EDTA, 0.05% BSA
BACE-1: 6his-tagged full length BACE 1 from SF9 cells
Substrate peptide: WSEVNLDAEFRC-MR121
BACE1 MR121 protease assay
39 μl of a 38 nM 6his-BACE-1 solution in assay buffer (final conc. in the assay: 30 nM) were pipetted into the assay plate. 1 μl of a concentration of a potential inhibitor in dimethylsulfoxide was added to the enzyme and incubated for 10 min. Finally, 10 μl of a 1.5 μM solution of the substrate in assay buffer (final conc. in the assay: 300 nM) was added to start the enzymatic reaction. After strong mixing for 2 min the enzymatic reaction was followed by measuring the fluorescence intensity every two minutes for 15 min on a suitable fluorescence reader. […] The slope was calculated from the linear part of the kinetic as a measure of the activity of BACE-1. A range of concentrations of the potential inhibitor was used to generate data for calculating the concentration of inhibitor resulting in 50% of the effect (e.g. IC50, the concentration of the compound inhibiting the BACE-1 activity by 50%).
As usually defined, the IC50 is the concentration at which inhibition is half-maximal. Consider `Cc1cnc(F)c(-c2cccc(C3(c4ccc(OC(F)F)c(C)c4)COC(N)=N3)c2)c1` (racemic) [Example 104, (RS)-4-(4-Difluoromethoxy-3-methyl-phenyl)-4-[3-(2-fluoro-5-methyl-pyridin-3-yl)-phenyl]-4,5-dihydro-oxazol-2-ylamine formate], for which it took 130 nM to reach half-maximal inhibition (IC50). The same measure for `Cc1cc(OC(F)F)ccc1C1(c2cccc(-c3cncnc3)c2)COC(N)=N1` (racemic) [Example 129, (RS)-4-(4-Difluoromethoxy-2-methyl-phenyl)-4-(3-pyrimidin-5-yl-phenyl)-4,5-dihydro-oxazol-2-ylamine formate]: 500 nM; for `COc1ccc(C2(c3cccc(-c4cccnc4F)c3)COC(N)=N2)cc1Cl` (racemic) [Example 72, (RS)-4-(3-Chloro-4-methoxy-phenyl)-4-[3-(2-fluoro-pyridin-3-yl)-phenyl]-4,5-dihydro-oxazol-2-ylamine]: 740 nM. The same measure for `COc1ccc(F)c(-c2cc(C3(c4ccc(OC(F)F)c(C)c4)COC(N)=N3)ccc2F)c1` (racemic) [Example 123, (RS)-4-(6,2′-Difluoro-5′-methoxy-biphenyl-3-yl)-4-(4-difluoromethoxy-3-methyl-phenyl)-4,5-dihydro-oxazol-2-ylamine formate]: 200 nM. Molecule `COc1ccc(C2(c3cccc(-c4cccc(Cl)c4)c3)COC(N)=N2)cc1C` (racemic) [Example 42, (RS)-4-(3′-Chloro-biphenyl-3-yl)-4-(4-methoxy-3-methyl-phenyl)-4,5-dihydro-oxazol-2-ylamine formate] showed an IC50 of 800 nM. The same measure for `COc1cncc(-c2cccc(C3(c4ccc(OC(F)F)cc4C)COC(N)=N3)c2)c1` (racemic) [Example 146, (RS)-4-(4-Difluoromethoxy-2-methyl-phenyl)-4-[3-(5-methoxy-pyridin-3-yl)-phenyl]-4,5-dihydro-oxazol-2-ylamine formate]: 200 nM.

Take `Cc1cc(C2(c3ccc(F)c(-c4cncc(F)c4)c3)COC(N)=N2)ccc1OC(F)F` (racemic) [Example 122, (RS)-4-(4-Difluoromethoxy-3-methyl-phenyl)-4-[4-fluoro-3-(5-fluoro-pyridin-3-yl)-phenyl]-4,5-dihydro-oxazol-2-ylamine formate]: the 50% inhibitory concentration (IC50) was found to be 150 nM. In the case of `COc1cncc(-c2cc(C3(c4ccc(OC)c(Cl)c4)COC(N)=N3)ccc2F)c1` (racemic) [Example 111, (RS)-4-(3-Chloro-4-methoxy-phenyl)-4-[4-fluoro-3-(5-methoxy-pyridin-3-yl)-phenyl]-4,5-dihydro-oxazol-2-ylamine formate], the IC50 came out at 160 nM.

Regarding `NC1=NC(c2ccc(OC(F)F)cc2)(c2cccc(-c3cncc(F)c3)c2)CO1` (racemic) [Example 88, (RS)-4-(4-Difluoromethoxy-phenyl)-4-[3-(5-fluoro-pyridin-3-yl)-phenyl]-4,5-dihydro-oxazol-2-ylamine formate], the IC50 was found to be 370 nM. The same measure for `COc1cncc(-c2cccc(C3(c4ccc(OC)c(F)c4)COC(N)=N3)c2)c1` (racemic) [Example 92, (RS)-4-(3-Fluoro-4-methoxy-phenyl)-4-[3-(5-methoxy-pyridin-3-yl)-phenyl]-4,5-dihydro-oxazol-2-ylamine formate]: 750 nM; for `Cc1cc(OC(F)F)ccc1C1(c2cccc(-c3cncc(C#N)c3)c2)COC(N)=N1` (racemic) [Example 200, (RS)-5-{3-[2-Amino-4-(4-difluoromethoxy-2-methyl-phenyl)-4,5-dihydro-oxazol-4-yl]-phenyl}-nicotinonitrile formate]: 380 nM. `NC1=NC(c2cccc(-c3cncc(Cl)c3)c2)(c2ccc(OC(F)F)c(F)c2)CO1` (racemic) [Example 115, (RS)-4-[3-(5-Chloro-pyridin-3-yl)-phenyl]-4-(4-difluoromethoxy-3-fluoro-phenyl)-4,5-dihydro-oxazol-2-ylamine formate] yielded an IC50 of 240 nM.

`COc1cncc(-c2cccc(C3(c4ccc(OC)c(C(F)(F)F)c4)COC(N)=N3)c2)c1` (racemic) [Example 150, formate] returned an IC50 of 330 nM. The same measure for `COc1ccc([C@@]2(c3cccc(-c4cccc(Cl)c4)c3)COC(N)=N2)cc1` [Example 39A, (R)-4-(3′-Chloro-biphenyl-3-yl)-4-(4-methoxy-phenyl)-4,5-dihydro-oxazol-2-ylamine]: 440 nM. The same measure for `COc1ccc(C2(c3ccc(F)c(-c4cccnc4)c3)COC(N)=N2)cc1C` (racemic) [Example 24, (RS)-4-(4-Fluoro-3-pyridin-3-yl-phenyl)-4-(4-methoxy-3-methyl-phenyl)-4,5-dihydro-oxazol-2-ylamine]: 290 nM; for `COc1ccc(F)c(-c2cccc(C3(c4ccc(OC(F)F)c(C)c4)COC(N)=N3)c2)c1` (racemic) [Example 105, (RS)-4-(4-Difluoromethoxy-3-methyl-phenyl)-4-(2′-fluoro-5′-methoxy-biphenyl-3-yl)-4,5-dihydro-oxazol-2-ylamine formate]: 130 nM; for `COc1cncc(-c2cccc(C3(c4ccc(OC)c(Cl)c4)COC(N)=N3)c2)c1` (racemic) [Example 74, (RS)-4-(3-Chloro-4-methoxy-phenyl)-4-[3-(5-methoxy-pyridin-3-yl)-phenyl]-4,5-dihydro-oxazol-2-ylamine]: 130 nM. The same measure for `CCOCc1cc(Nc2ccccc2)cc(C2(c3ccc(OC(F)F)c(C)c3)COC(N)=N2)c1` (racemic) [Example 193, (RS)-4-(4-Difluoromethoxy-3-methyl-phenyl)-4-(3-ethoxymethyl-5-phenylamino-phenyl)-4,5-dihydro-oxazol-2-ylamine]: 80 nM; for `Cc1cc(C2(c3ccc(F)c(-c4cncnc4)c3)COC(N)=N2)ccc1OC(F)F` (racemic) [Example 120, (RS)-4-(4-Difluoromethoxy-3-methyl-phenyl)-4-(4-fluoro-3-pyrimidin-5-yl-phenyl)-4,5-dihydro-oxazol-2-ylamine formate]: 90 nM; for `COc1ccc(C2(c3ccc(F)c(-c4cccnc4F)c3)COC(N)=N2)cc1C` (racemic) [Example 57, (RS)-4-[4-Fluoro-3-(2-fluoro-pyridin-3-yl)-phenyl]-4-(4-methoxy-3-methyl-phenyl)-4,5-dihydro-oxazol-2-ylamine formate]: 410 nM.

In turn, `Cc1cc(C2(c3cccc(-c4cccc(Cl)c4)c3)COC(N)=N2)ccc1OC(F)F` (racemic) [Example 99, (RS)-4-(3′-Chloro-biphenyl-3-yl)-4-(4-difluoromethoxy-3-methyl-phenyl)-4,5-dihydro-oxazol-2-ylamine formate] had an IC50 of 170 nM. The same measure for `COc1ccc(C2(c3ccc(F)c(-c4cccnc4)c3)COC(N)=N2)cc1Cl` (racemic) [Example 109, (RS)-4-(3-Chloro-4-methoxy-phenyl)-4-(4-fluoro-3-pyridin-3-yl-phenyl)-4,5-dihydro-oxazol-2-ylamine formate]: 770 nM. The same measure for `Cc1cc(C2(c3cccc(-c4cnccn4)c3)COC(N)=N2)ccc1OC(F)F` (racemic) [Example 204, (RS)-4-(4-Difluoromethoxy-3-methyl-phenyl)-4-(3-pyrazin-2-yl-phenyl)-4,5-dihydro-oxazol-2-ylamine formate]: 160 nM.

For the origin of these results see patent publication US7989449B2, “4,5-dihydro-oxazol-2-yl amine derivatives” (Hoffman-La Roche Inc., priority 2008, dated 2011).
